Measurements published in patent publication US8946234B2, “Halogen-substituted compounds” (Bayer CropScience AG, priority 2008, dated 2015).
Like-named read-outs stand apart in the source and are kept apart here.

Experiment: physchem
Assay type: physicochemical
Settings: for chromatographic logP: read-out: logP
Experimental: ^a) Note regarding the determination of the log P values and mass detection: The log P values given were determined in accordance with EEC Directive 79/831 Annex V.A8 by HPLC (High Performance Liquid Chromatography) on a phase inversion column (C18). Agilent 1100 LC system; 50*4.6 Zorbax Eclipse Plus C18 1.8 micron; eluent A: acetonitrile (0.1% formic acid); eluent B: water (0.09% formic acid); linear gradient from 10% acetonitrile to 95% acetonitrile in 4.25 min, then 95% acetonitrile for a further 1.25 min; oven temperature 55° C.; flow: 2.0 ml/min. The mass detection is carried out via an Agilend MSD system.

[1] = HPLC phase inversion (reversed-phase) C18 column, HPLC method a), eluent acetonitrile/water with formic acid
[2] = HPLC phase inversion (reversed-phase) C18 column, HPLC on C18 phase inversion column, method a)

logP	chromatographic logP [1]	chromatographic logP [2]	SMILES
3.87^a)	–	–	CCC(C)NC(=O)c1cc(NC(=O)c2c(C(F)(F)F)c(C(F)(F)C(F)(F)F)nn2C)ccc1Cl (stereo not drawn) [Ik-91]
4.19^a)	–	–	Cn1nc(C(F)(F)C(F)(F)F)c(C(F)(F)F)c1C(=O)Nc1cc(F)c(F)c(C(=O)NCc2ccccc2)c1 [Ik-97]
4.42^a)	–	–	CCOC(=O)c1cc(NC(=O)c2c(C(F)(F)F)c(C(F)(F)C(F)(F)F)nn2C)ccc1Cl [Ik-103]
3.20^a)	–	–	Cn1nc(C(F)(F)C(F)(F)F)c(C(F)(F)F)c1C(=O)Nc1ccc2c(c1)C(=O)OC2 [Ik-106]
4.11^a)	–	–	CCN(CC)C(=O)COC(=O)c1cc(NC(=O)c2c(C(F)(F)F)c(C(F)(F)C(F)(F)F)nn2C)ccc1Cl [Ik-109]
3.10^a)	–	–	Cn1nc(C(F)(F)C(F)(F)F)c(C(F)(F)F)c1C(=O)Nc1ccc(Cl)c(C(=O)OCC(=O)NC(N)=O)c1 [Ik-110]
2.93^a)	–	–	Cn1nc(C(F)(F)C(F)(F)F)c(C(F)(F)F)c1C(=O)Nc1ccc(Cl)c(C(=O)OCC(=O)NCO)c1 [Ik-115]
–	3.26	3.26	O=C(NCC(F)(F)F)c1cc(NC(=O)c2[nH]nc(C(F)(F)C(F)(F)F)c2C(F)(F)F)ccc1Cl [Ik-124, N-{4-Chloro-3-[(2,2,2-trifluoroethyl)carbamoyl]phenyl}-3-(pentafluoroethyl)-4-(trifluoromethyl)-1H-pyrazole-5-carboxamide]
–	3.25	3.25	Cn1nc(C(F)(F)F)c(C(F)(F)F)c1C(=O)Nc1ccc(Cl)c(C(=O)NCC(F)(F)F)c1 [Ik-125, N-{4-Chloro-3-[(2,2,2-trifluoroethyl)carbamoyl]-phenyl}-1-methyl-3,4-bis(trifluoromethyl)-1H-pyrazole-5-carboxamide]
–	3.01	3.01	Cn1nc(OC(F)F)c(C(F)(F)F)c1C(=O)Nc1ccc(Cl)c(C(=O)NCC(F)(F)F)c1 [Ik-126, N-{4-Chloro-3-[(2,2,2-trifluoroethyl)carbamoyl]phenyl}-3-(difluoromethoxy)-1-methyl-4-(trifluoromethyl)-1H-pyrazole-5-carboxamide]
–	3.29	3.29	Cn1nc(C(F)(F)C(F)(F)F)c(C(F)(F)F)c1C(=O)Nc1ccc(Br)c(C(=O)N[C@@H]2C[C@@H]2F)n1 [Ik-127, N-{3-Bromo[2-(1R,2S)-2-fluorocycloprop-1-ylcarbamoyl]pyrid-6-yl}-1-methyl-3-(pentafluoroethyl)-4-(trifluoromethyl)-1H-pyrazole-5-carboxamide]
–	3.19	3.19	Cn1nc(C(F)(F)C(F)(F)F)c(C(F)(F)F)c1C(=O)Nc1cc(C(=O)N[C@@H]2C[C@@H]2F)c(Br)cn1 [Ik-128, 5-Bromo-N-[(1R,2S)-2-fluorocyclopropyl]-2-({[1-methyl-3-(pentafluoroethyl)-4-(trifluoromethyl)-1H-pyrazol-5-yl]carbonyl}amino)isonicotinamide]
–	2.82	2.82	Cn1nc(C(F)(F)C(F)(F)F)c(C(F)(F)F)c1C(=O)Nc1cc(C(=O)O)c(Cl)cn1 [Ik-129, 5-Chloro-2-({[1-methyl-3-(pentafluoroethyl)-4-(trifluoromethyl)-1H-pyrazol-5-yl]carbonyl}amino)isonicotinic acid]
–	3.59	3.59	Cn1nc(C(F)(F)C(F)(F)F)c(C(F)(F)F)c1C(=O)Nc1ccnc(C(=O)NC2CC2(F)F)c1 (stereo not drawn) [Ik-130, N-[2-(2,2-Difluorocycloprop-1-ylcarbamoyl)pyrid-4-yl]-1-methyl-3-(pentafluoroethyl)-4-(trifluoromethyl)-1H-pyrazole-5-carboxamide]
–	2.27	2.77	Cn1nc(C(F)(F)C(F)(F)F)c(C(F)(F)F)c1C(=O)Nc1cnc(Cl)c(C(=O)O)c1 [Ik-131, 2-Chloro-5-({[1-methyl-3-(pentafluoroethyl)-4-(trifluoromethyl)-1H-pyrazol-5-yl]carbonyl}amino)nicotinic acid]
3.66^a)	–	–	CN(C(=O)c1c(C(F)(F)F)c(C(F)(F)C(F)(F)F)nn1C)c1ccc(Cl)c(C(=O)NCC(F)(F)F)c1 [Ik-133]
3.94^a)	–	–	CN(C(=O)c1c(C(F)(F)F)c(C(F)(F)C(F)(F)F)nn1C)c1ccc(Cl)c(C(=O)NCc2ccccc2)c1 [Ik-134]
3.51^a)	–	–	COCN(C(=O)c1c(C(F)(F)F)c(C(F)(F)C(F)(F)F)nn1C)c1ccc(Cl)c(C(=O)NC2CC2)c1 [Ik-135]
3.55^a)	–	–	CCN(C(=O)c1c(C(F)(F)F)c(C(F)(F)C(F)(F)F)nn1C)c1ccc(Cl)c(C(=O)NC2CC2)c1 [Ik-136]
4.02^a)	–	–	CC(C)N(C(=O)c1c(C(F)(F)F)c(C(F)(F)C(F)(F)F)nn1C)c1ccc(Cl)c(C(=O)NCC(F)(F)F)c1 [Ik-139]
3.60^a)	–	–	Cn1nc(C(F)(F)C(F)(F)F)c(C(F)(F)F)c1C(=O)Nc1cc(F)c(F)c(C(=O)NC2CC2)c1 [Ik-140]
3.89^a)	–	–	Cn1nc(C(F)(F)C(F)(F)F)c(C(F)(F)F)c1C(=O)Nc1cc(F)c(F)c(C(=O)NCC(F)(F)F)c1 [Ik-141]
3.39^a)	–	–	Cn1nc(C(F)(F)C(F)(F)F)c(C(F)(F)F)c1C(=O)Nc1cc(C(=O)NC2CC2)c(Cl)cc1F [Ik-143]
3.73^a)	–	–	Cn1nc(C(F)(F)C(F)(F)F)c(C(F)(F)F)c1C(=O)Nc1cc(C(=O)NCC(F)(F)F)c(Cl)cc1F [Ik-144]
3.32^a)	–	–	Cn1nc(C(F)(F)C(F)(F)F)c(C(F)(F)F)c1C(=O)Nc1cc(C(=O)NC2CC2)c(F)cc1F [Ik-145]
3.53^a)	–	–	Cn1nc(C(F)(F)C(F)(F)F)c(C(F)(F)F)c1C(=O)Nc1cc(C(=O)NC2CC2)c(F)cc1Cl [Ik-148]
4.23^a)	–	–	Cn1nc(C(F)(F)C(F)(F)F)c(C(F)(F)F)c1C(=O)Nc1cc(C(=O)NCc2ccccc2)c(Cl)cc1Cl [Ik-150]
3.44^a)	–	–	CC(NC(=O)c1cc(NC(=O)c2c(Cl)c(C(F)(F)F)nn2C)ccc1Cl)C(F)(F)F (stereo not drawn) [Ik-152]
3.95^a)	–	–	Cn1nc(C(F)(F)C(F)(F)F)c(C(F)(F)F)c1C(=O)Nc1ccc(F)c(C(=O)NCc2ccccc2)c1 [Ik-157]

The next lines start with the molecule.

SMILES	logP	chromatographic logP [1]	chromatographic logP [2]
Cn1nc(C(F)(F)C(F)(F)F)c(C(F)(F)F)c1C(=O)Nc1ccc(Cl)c(C(=O)NCCF)c1 [Ik-88]	3.21^a)	–	–
CCSCC(C)NC(=O)c1cc(NC(=O)c2c(C(F)(F)F)c(C(F)(F)C(F)(F)F)nn2C)ccc1Cl (stereo not drawn) [Ik-89]	4.09^a)	–	–
CC(C)NC(=O)c1cc(NC(=O)c2c(C(F)(F)F)c(C(F)(F)C(F)(F)F)nn2C)ccc1Cl [Ik-90]	3.60^a)	–	–
CC(C)CNC(=O)c1cc(NC(=O)c2c(C(F)(F)F)c(C(F)(F)C(F)(F)F)nn2C)ccc1Cl [Ik-92]	3.90^a)	–	–
C=CCNC(=O)c1cc(NC(=O)c2c(C(F)(F)F)c(C(F)(F)C(F)(F)F)nn2C)ccc1Cl [Ik-93]	3.44^a)	–	–
Cn1nc(C(F)(F)C(F)(F)F)c(I)c1C(=O)Nc1ccc(Cl)c(C(=O)NCC(F)(F)F)c1 [Ik-99]	3.52^a)	–	–
CC(C)(F)n1nc(C(F)C(F)(F)F)c(C(F)(F)F)c1C(=O)Nc1ccc(Cl)c(C(=O)NC2CC2)c1 (stereo not drawn) [Ik-100]	3.39^a)	–	–
Cn1nc(C(F)(F)C(F)(F)F)c(C(F)(F)F)c1C(=O)Nc1ccc(OC(F)F)c(C(=O)O)c1 [Ik-104]	3.23^a)	–	–
Cn1nc(C(F)(F)C(F)(F)F)c(C(F)(F)F)c1C(=O)Nc1cc2c(cc1F)COC2=O [Ik-105]	3.27^a)	–	–
COC(=O)COC(=O)c1cc(NC(=O)c2c(C(F)(F)F)c(C(F)(F)C(F)(F)F)nn2C)ccc1Cl [Ik-107]	4.03^a)	–	–
CN(C)C(=O)COC(=O)c1cc(NC(=O)c2c(C(F)(F)F)c(C(F)(F)C(F)(F)F)nn2C)ccc1Cl [Ik-108]	3.57^a)	–	–
Cn1nc(C(F)(F)OC(F)(F)C(F)(F)OC(F)(F)F)c(Br)c1C(=O)Nc1ccc(Cl)c(C(=O)NC2CC2)c1 [Ik-117]	4.31^a)	–	–
CN(C(=O)c1c(C(F)(F)F)c(C(F)(F)C(F)(F)F)nn1C)c1ccc(Cl)c(C(=O)NC2CC2)c1 [Ik-132]	3.30^a)	–	–
CC(C)N(C(=O)c1c(C(F)(F)F)c(C(F)(F)C(F)(F)F)nn1C)c1ccc(Cl)c(C(=O)NC2CC2)c1 [Ik-137]	3.74^a)	–	–
CCN(C(=O)c1c(C(F)(F)F)c(C(F)(F)C(F)(F)F)nn1C)c1ccc(Cl)c(C(=O)NCC(F)(F)F)c1 [Ik-138]	3.81^a)	–	–
Cn1nc(C(F)(F)C(F)(F)F)c(C(F)(F)F)c1C(=O)Nc1cc(C(=O)NCc2ccccc2)c(Cl)cc1F [Ik-142]	4.00^a)	–	–
Cn1nc(C(F)(F)C(F)(F)F)c(C(F)(F)F)c1C(=O)Nc1cc(C(=O)NCC(F)(F)F)c(F)cc1F [Ik-146]	3.64^a)	–	–
Cn1nc(C(F)(F)C(F)(F)F)c(C(F)(F)F)c1C(=O)Nc1cc(C(=O)NC2CC2)c(Cl)cc1Cl [Ik-147]	3.61^a)	–	–
Cn1nc(C(F)(F)C(F)(F)F)c(C(F)(F)F)c1C(=O)Nc1ccc(Cl)c(C(=O)NCc2ccccc2)c1Cl [Ik-149]	4.33^a)	–	–
Cn1nc(C(F)(F)C(F)(F)F)c(C(F)(F)F)c1C(=O)Nc1cc(C(=O)NCC(F)(F)F)c(F)cc1Cl [Ik-151]	3.83^a)	–	–
Cn1nc(C(F)(F)F)c(Cl)c1C(=O)Nc1ccc(Cl)c(C(=O)NC2CC2F)c1 (stereo not drawn) [Ik-153]	2.86^a)	–	–
Cn1nc(C(F)(F)F)c(Cl)c1C(=O)Nc1ccc(Cl)c(C(=O)NCC(F)(F)F)c1 [Ik-154]	3.20^a)	–	–
Cn1nc(C(F)(F)C(F)(F)F)c(C(F)(F)F)c1C(=O)Nc1ccc(F)c(C(=O)NC2CC2)c1 [Ik-155]	3.31^a)	–	–
Cn1nc(C(F)(F)C(F)(F)F)c(C(F)(F)F)c1C(=O)Nc1ccc(F)c(C(=O)NCC(F)(F)F)c1 [Ik-156]	3.66^a)	–	–
CC(NC(=O)c1cc(NC(=O)c2c(Br)c(C(F)(F)F)nn2C)ccc1Cl)C(F)(F)F (stereo not drawn) [Ik-158]	3.40^a)	–	–
Cn1nc(C(F)(F)F)c(Br)c1C(=O)Nc1ccc(Cl)c(C(=O)NC2CC2F)c1 (stereo not drawn) [Ik-159]	2.82^a)	–	–
